Some results are limits rather than exact numbers.

For the assay, the target named is T1, CCXCKR2 receptor (Homo sapiens, UniProt P25106).
T1 construct: expressed in transfected cells; host or cells: MDA-MB-435S transfected with pcDNA3.1(+)-hRDC1 and/or MCF-7 (endogenous receptor)
T1 sequence (P25106 whole entry): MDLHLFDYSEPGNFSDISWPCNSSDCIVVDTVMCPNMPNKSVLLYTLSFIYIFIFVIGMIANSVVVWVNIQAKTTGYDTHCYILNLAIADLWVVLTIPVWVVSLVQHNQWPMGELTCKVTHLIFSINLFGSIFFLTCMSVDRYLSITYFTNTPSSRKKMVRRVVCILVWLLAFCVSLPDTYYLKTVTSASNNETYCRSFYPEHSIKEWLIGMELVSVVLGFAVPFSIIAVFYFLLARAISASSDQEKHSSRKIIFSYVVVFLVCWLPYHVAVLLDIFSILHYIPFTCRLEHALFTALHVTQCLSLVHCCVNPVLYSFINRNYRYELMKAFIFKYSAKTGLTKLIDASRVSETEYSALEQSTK
Description: Displacement of 125I-labeled SDF-1 from the CCXCKR2 receptor on MCF-7 and/or CCXCKR2-transfected MDA-MB-435S cells (radioligand binding, filtration). The settings on record: 125I SDF-1, 3 hr at 4° C., MCF-7 and/or MDA-MB-435S cells; read-out: Activity (concentration displacing at least 50% of the SDF-1 from the CCXCKR2 receptor).
Take `Cc1cccc(Cn2cc(C(=O)c3ccc(C)c(C)n3)c(=O)c3ccccc32)n1` [Example 96]: the IC50 was less than 100 nM. As for `COCc1cccc(Cn2cc(C(=O)c3ccc(C)c(C)c3)c(=O)c3ccccc32)n1` [Example 111], the IC50 was in the range of 100 to 500 nM. For the compound `Cc1ccc(C(=O)c2cn(-c3ccccc3)c3ccccc3c2=O)cc1C` [Example 38], the IC50 lay within 500 to 20000 nM.

As to `CSc1cccc(Cn2cc(C(=O)c3ccc(C)c(C)c3)c(=O)c3ccccc32)n1` [Example 77], the IC50 is less than 100 nM.

With `Cc1ccc(C(=O)c2cn(Cc3cnccn3)c3ccccc3c2=O)cc1C` [Example 57], the IC50 was less than 100 nM. In the case of `COc1ccc(C(=O)c2cn(Cc3cccc(C)n3)c3nc(C)c(C)cc3c2=O)cc1C` [Example 192] it was 100 to 500 nM; in that of `Nc1cccc(Cn2cc(C(=O)c3ccc4c(c3)OCCO4)c(=O)c3ccccc32)n1` [Example 230], 100 to 500 nM; in that of `Cc1cccc(Cn2cc(C(=O)c3ccc(C(F)(F)F)nc3)c(=O)c3ccccc32)n1` [Example 177], 100 to 500 nM.

As for `Cc1cc(C(=O)c2cn(Cc3cccc(Br)n3)c3ccccc3c2=O)cnc1C` [Example 54], the IC50 is less than 100 nM. In the case of `Cc1cc(C(=O)c2cn(Cc3cccc(Br)n3)c3ccc(F)cc3c2=O)cnc1C` [Example 67] it was less than 100 nM; in that of `O=C(c1ccc2c(c1)OCCO2)c1cn(Cc2cccc(C(F)(F)F)n2)c2ccccc2c1=O` [Example 229], 100 to 500 nM.

Regarding `N#Cc1cccc(Cn2cc(C(=O)c3ccc4c(c3)OCCO4)c(=O)c3ccccc32)n1` [Example 228], the IC50 is less than 100 nM. For the compound `O=C(c1ccccc1-c1cnco1)c1cn(Cc2cccc(Br)n2)c2ccccc2c1=O` [Example 167], the IC50 is 500 to 20000 nM. As to `Cc1ccc2c(=O)c(C(=O)c3ccc(C)c(C)c3)cn(Cc3cccc(Br)n3)c2n1` [Example 106], the IC50 was less than 100 nM. Regarding `COc1ccc(C(=O)c2cn(Cc3cccc(C(F)(F)F)n3)c3ncccc3c2=O)cc1C` [Example 195], the IC50 was less than 100 nM.

Take `Cc1cccc(Cn2cc(C(=O)c3ccc4c(c3)OCCO4)c(=O)c3ccccc32)n1` [Example 157]: the IC50 was less than 100 nM.

Consider `O=C(c1ccc(N2CCCC2)nc1)c1cn(Cc2cccc(Br)n2)c2ccccc2c1=O` [Example 241], for which the IC50 lay within 100 to 500 nM. For `O=C(c1ccc(Cl)s1)c1cn(Cc2cccc(Br)n2)c2ccccc2c1=O` [Example 187], the IC50 was less than 100 nM. In the case of `Nc1ccc(C(=O)c2cn(Cc3cccc(Br)n3)c3ccccc3c2=O)cn1` [Example 223] it was 500 to 20000 nM; in that of `Cc1ncc(C(=O)c2cn(Cc3cccc(Br)n3)c3ccccc3c2=O)n1C` [Example 152], 500 to 20000 nM; in that of `O=C(c1cccc(C(F)(F)F)n1)c1cn(Cc2cccc(Br)n2)c2ccccc2c1=O` [Example 139], 500 to 20000 nM. `COc1cccc(C(=O)c2cn(Cc3cccc(Br)n3)c3ccccc3c2=O)c1` [Example 141]: the IC50 was less than 100 nM. As for `COc1ccc(C(=O)c2cn(Cc3cccc(Br)n3)c3ncccc3c2=O)cc1C` [Example 160], the IC50 is less than 100 nM. On to `Cc1cccc(C(=O)c2cn(Cc3ccccc3F)c3ccccc3c2=O)c1` [Example 21], for which the IC50 is less than 100 nM.

Take `COc1ccc(C(=O)c2cn(Cc3cccc(Br)c3)c3ccc(C)nc3c2=O)cc1F` [Example 238]: the IC50 lay within 500 to 20000 nM. With `Cc1ccc(C(=O)c2cn(Cc3cccc(C)c3F)c3ccccc3c2=O)cc1C` [Example 45], the IC50 was less than 100 nM. Consider `Cc1cccc(Cn2cc(C(=O)c3cnccn3)c(=O)c3ccccc32)c1` [Example 62], for which the IC50 is 500 to 20000 nM.

Regarding `COc1cc(C(=O)c2cn(Cc3cccc(Br)n3)c3ncccc3c2=O)ccc1Cl` [Example 172], the IC50 is less than 100 nM. `Cc1ccc(C(=O)c2cn(Cc3cccnc3)c3cc4c(cc3c2=O)OCCO4)cc1C` [Example 12]: the IC50 was in the range of 500 to 20000 nM.

In the case of `CCc1ccc(C(=O)c2cn(Cc3cccc(C)n3)c3ccccc3c2=O)cn1` [Example 212], the IC50 is less than 100 nM. In the case of `Cc1ccc(C(=O)c2cn(Cc3ccccc3F)c3ccccc3c2=O)nc1C` [Example 49], the IC50 was less than 100 nM. The figure for `Cc1ccc(C(=O)c2c(C)n(Cc3cccc(Br)n3)c3ccccc3c2=O)cc1C` [Example 72] is 500 to 20000 nM; for `COc1ccc(C(=O)c2cn(Cc3cccc(Br)n3)c3ccccc3c2=O)c(C)c1` [Example 178] it is less than 100 nM. As to `O=C(c1ccc(Cl)c(F)c1)c1cn(Cc2cccc(Br)n2)c2ccccc2c1=O` [Example 179], the IC50 was less than 100 nM. For `Cc1ccc(C(=O)c2cn(Cc3cccc(C(F)(F)F)n3)c3ccccc3c2=O)cc1C` [Example 66], the IC50 was less than 100 nM. The figure for `Cc1cccc(Cn2cc(C(=O)c3cnc(C)c(C)c3)c(=O)c3cc(F)ccc32)n1` [Example 124] is less than 100 nM; for `Cc1ccc(C)c(C(=O)c2cn(Cc3cccc(Br)n3)c3ccccc3c2=O)c1` [Example 102] it is less than 100 nM. For the compound `Cc1cccc(C(=O)c2cn(Cc3cccc(Br)n3)c3ccccc3c2=O)c1C` [Example 103], the IC50 was less than 100 nM. Regarding `Cc1ccc(C(=O)c2cn(Cc3cccc(-c4ccccc4)n3)c3ccccc3c2=O)cc1C` [Example 42], the IC50 is 100 to 500 nM. In the case of `Cc1cc(C(=O)c2cn(Cc3cccc(Br)n3)c3ccccc3c2=O)ccc1Cl` [Example 182] it was less than 100 nM; in that of `Cc1ccc(C(=O)c2cn(Cc3cccc(CN(C)C)n3)c3ccccc3c2=O)cc1C` [Example 118], 500 to 20000 nM; in that of `Cc1ccc(C(=O)c2cn(Cc3cccc(C)n3)c3ccccc3c2=O)nc1` [Example 221], 500 to 20000 nM. As for `CCN(CC)c1ccc(C(=O)c2cn(Cc3cccc(Br)c3)c3ccccc3c2=O)cn1` [Example 235], the IC50 is less than 100 nM. Turning to `Cc1ccc(C(=O)c2cn(Cc3cccc(C#N)n3)c3ccccc3c2=O)nc1C` [Example 80], the IC50 was less than 100 nM. On to `CN(C)c1cccc(C(=O)c2cn(Cc3cccc(Br)n3)c3ccccc3c2=O)c1` [Example 97], for which the IC50 was less than 100 nM.

Take `Cc1ccc(C(=O)c2cn(Cc3cccc(CCl)n3)c3ccccc3c2=O)cc1C` [Example 108]: the IC50 is less than 100 nM. With `Cc1ccc(C(=O)c2cn(Cc3ccccn3)c3ccc(C(F)(F)F)cc3c2=O)cc1C` [Example 13], the IC50 is 500 to 20000 nM.

Take `Cc1cccc(Cn2cc(C(=O)c3ccc(N(C)C)cc3)c(=O)c3ccccc32)n1` [Example 158]: the IC50 is less than 100 nM. In the case of `COc1ccc(C(=O)c2cn(Cc3cccc(Br)n3)c3nc(C)ccc3c2=O)cc1C` [Example 143] it was less than 100 nM; in that of `Cc1cnc(C(=O)c2cn(Cc3cccc(Br)n3)c3ccccc3c2=O)cc1C` [Example 94], less than 100 nM; in that of `COc1ccc(C(=O)c2cn(Cc3cccc(Br)n3)c3ncccc3c2=O)cc1` [Example 173], less than 100 nM. With `COc1ccc(C(=O)c2cn(Cc3cccc(Br)n3)c3ccccc3c2=O)cc1C(=O)N(C)C` [Example 181], the IC50 is 500 to 20000 nM. Turning to `O=C(c1ccc2c(c1)OCCO2)c1cn(Cc2cccc(Br)n2)c2ccccc2c1=O` [Example 113], the IC50 was less than 100 nM. Consider `O=C(c1ccc(Cl)cc1)c1cn(Cc2cccc(Br)n2)c2ccccc2c1=O` [Example 200], for which the IC50 is less than 100 nM.

With `COc1ccc(C(=O)c2cn(Cc3cccc(Cl)c3)c3ccc(C)nc3c2=O)cc1C` [Example 234], the IC50 lay in the range of 100 to 500 nM.

Source of the values: patent US7557213B2, “Substituted quinolones and methods of use” (ChemoCentryx, Inc., priority 2005, dated 2009).
